Results: patent publication US8691753B2 (priority 2009, dated 2014)
Where two headings read alike, the source gives them in different places.

Key:
MMP-14h = MMP-14h (Homo sapiens (Human), UniProt P50281); assay: Inhibition constant (Ki) on MMP-14h; assay type: biochemical; conditions: for Ki: human MMP-14
Procedure, shortened: (§1)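 Compounds are evaluated on human MMPs, and Ki is derived as set out in an earlier publication.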

MMP-12h = MMP-12h (Homo sapiens (Human), UniProt P39900); assay: Inhibition constant (Ki) on MMP-12h; assay type: biochemical; conditions: for Ki: read-out: Ki MMP-12h, human MMP-12
MMP-2h = MMP-2h (Homo sapiens (Human), UniProt P08253); assay: Inhibition constant (Ki) on MMP-2h; assay type: biochemical; conditions: for Ki: human MMP-2
Procedure, shortened: as §1

MMP-1h = MMP-1h (Homo sapiens (Human), UniProt P03956); assay: Inhibition constant (Ki) on MMP-1h; assay type: biochemical; conditions: for Ki: human MMP-1
Source text: (§2) The inhibition constant Ki of these compounds has been determined according to the protocol described by Devel et al, 2006, J. Biol. Chem. (7).
(§3) In this table I and also in table II below, “h” corresponds to human. All of the compounds have therefore been evaluated on human MMPs.

MMP-10h = MMP-10h (Homo sapiens (Human), UniProt P09238); assay: Inhibition constant (Ki) on MMP-10h; assay type: biochemical; conditions: for Ki: human MMP-10
MMP-9h = MMP-9h (Homo sapiens (Human), UniProt P14780); assay: Inhibition constant (Ki) on MMP-9h; assay type: biochemical; conditions: for Ki: human MMP-9
Procedure, shortened: as §1

MMP-8h = MMP-8h (Homo sapiens (Human), UniProt P22894); assay: Inhibition constant (Ki) on MMP-8h; assay type: biochemical; conditions: for Ki: human MMP-8
human MMPs = assay: Inhibition of the panel of human MMPs (overall statements, selectivity); assay type: biochemical; conditions: other human MMPs versus MMP-12
MMP-13h = MMP-13h (Homo sapiens (Human), UniProt P45452); assay: Inhibition constant (Ki) on MMP-13h; assay type: biochemical; conditions: for Ki: human MMP-13
Procedure, shortened: as §1

MMP-3h = MMP-3h (Homo sapiens (Human), UniProt P08254); assay: Inhibition constant (Ki) on MMP-3h; assay type: biochemical; conditions: for Ki: human MMP-3
Procedure, shortened: as §1

MMP-7h = MMP-7h (Homo sapiens (Human), UniProt P09237); assay: Inhibition constant (Ki) on MMP-7h; assay type: biochemical; conditions: for Ki: human MMP-7
Source text: as §2, §3

[1] = Stability test in mouse blood; assay type: in vitro ADME; conditions: after 24 hours in mouse blood
Experimental: The loss of 50% of the starting material can be attributed to a phenomenon of nonspecific association of the compound with the wall of the eppendorf. It should be noted that this 50% loss of the compound was also observed after 24 hours for a solution at 10 nM in PBS buffer or in a solution at 1 μM of PBS (Bovine Serum Albumin).

Sequence of MMP-2h (P08253 110-660): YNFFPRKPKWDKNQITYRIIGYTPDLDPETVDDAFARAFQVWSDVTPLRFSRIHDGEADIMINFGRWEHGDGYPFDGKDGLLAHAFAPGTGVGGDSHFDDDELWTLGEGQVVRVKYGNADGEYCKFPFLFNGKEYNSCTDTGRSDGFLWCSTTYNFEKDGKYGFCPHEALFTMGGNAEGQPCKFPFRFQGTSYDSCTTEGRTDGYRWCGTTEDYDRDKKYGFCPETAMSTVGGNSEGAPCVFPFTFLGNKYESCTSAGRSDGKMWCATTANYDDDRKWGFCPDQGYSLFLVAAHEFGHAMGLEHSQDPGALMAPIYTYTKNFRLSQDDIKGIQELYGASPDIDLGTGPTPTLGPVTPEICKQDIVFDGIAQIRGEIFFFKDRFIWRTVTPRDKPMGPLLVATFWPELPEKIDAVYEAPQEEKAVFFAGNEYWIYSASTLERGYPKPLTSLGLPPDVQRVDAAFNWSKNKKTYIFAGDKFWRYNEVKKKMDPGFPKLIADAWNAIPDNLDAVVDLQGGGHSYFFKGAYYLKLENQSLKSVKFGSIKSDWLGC
Sequence of MMP-3h (P08254 100-477): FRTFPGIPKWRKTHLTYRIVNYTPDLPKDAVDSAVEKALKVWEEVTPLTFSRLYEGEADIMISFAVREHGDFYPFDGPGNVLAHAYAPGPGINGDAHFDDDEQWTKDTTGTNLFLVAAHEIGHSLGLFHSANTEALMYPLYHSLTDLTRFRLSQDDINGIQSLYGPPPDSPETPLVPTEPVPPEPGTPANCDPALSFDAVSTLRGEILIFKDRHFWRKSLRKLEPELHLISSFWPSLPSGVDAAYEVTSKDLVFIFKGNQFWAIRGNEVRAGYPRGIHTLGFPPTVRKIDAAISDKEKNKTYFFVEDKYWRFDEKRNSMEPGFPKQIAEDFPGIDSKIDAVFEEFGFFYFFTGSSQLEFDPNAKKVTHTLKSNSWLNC
Sequence of MMP-12h (P39900 106-470): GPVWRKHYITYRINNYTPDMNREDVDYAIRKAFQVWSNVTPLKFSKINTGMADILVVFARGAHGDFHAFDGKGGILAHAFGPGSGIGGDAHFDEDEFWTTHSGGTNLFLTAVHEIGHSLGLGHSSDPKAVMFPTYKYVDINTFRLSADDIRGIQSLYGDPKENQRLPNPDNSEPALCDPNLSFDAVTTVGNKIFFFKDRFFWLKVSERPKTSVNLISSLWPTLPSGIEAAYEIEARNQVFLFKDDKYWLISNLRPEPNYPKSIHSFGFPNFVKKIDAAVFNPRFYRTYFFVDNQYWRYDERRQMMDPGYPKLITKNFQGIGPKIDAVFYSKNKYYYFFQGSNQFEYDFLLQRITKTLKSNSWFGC
Sequence of MMP-7h (P09237 95-267): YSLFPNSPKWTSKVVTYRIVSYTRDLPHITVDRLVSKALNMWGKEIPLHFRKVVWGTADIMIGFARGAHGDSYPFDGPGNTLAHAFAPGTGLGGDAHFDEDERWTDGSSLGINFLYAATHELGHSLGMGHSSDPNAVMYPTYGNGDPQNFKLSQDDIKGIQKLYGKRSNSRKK
Sequence of MMP-8h (P22894 101-467): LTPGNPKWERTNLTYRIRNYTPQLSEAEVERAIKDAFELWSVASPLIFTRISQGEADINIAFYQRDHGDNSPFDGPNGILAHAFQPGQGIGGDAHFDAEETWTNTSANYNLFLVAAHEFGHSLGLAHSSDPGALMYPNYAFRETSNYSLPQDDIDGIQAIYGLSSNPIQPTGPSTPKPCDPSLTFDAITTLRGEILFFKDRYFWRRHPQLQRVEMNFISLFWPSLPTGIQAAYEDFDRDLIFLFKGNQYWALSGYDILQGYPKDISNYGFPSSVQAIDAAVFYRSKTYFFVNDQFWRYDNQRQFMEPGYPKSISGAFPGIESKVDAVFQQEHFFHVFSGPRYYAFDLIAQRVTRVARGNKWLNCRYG
Sequence of MMP-1h (P03956 100-469): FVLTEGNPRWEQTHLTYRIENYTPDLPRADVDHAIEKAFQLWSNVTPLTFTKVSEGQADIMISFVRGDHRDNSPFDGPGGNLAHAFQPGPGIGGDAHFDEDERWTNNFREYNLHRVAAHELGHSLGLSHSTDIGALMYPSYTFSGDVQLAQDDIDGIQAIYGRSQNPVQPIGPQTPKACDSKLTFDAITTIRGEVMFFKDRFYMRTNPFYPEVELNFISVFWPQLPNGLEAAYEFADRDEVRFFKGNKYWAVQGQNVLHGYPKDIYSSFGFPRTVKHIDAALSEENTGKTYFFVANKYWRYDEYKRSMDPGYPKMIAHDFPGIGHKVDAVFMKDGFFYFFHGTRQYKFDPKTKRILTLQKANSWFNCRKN
Sequence of MMP-9h (P14780 94-707): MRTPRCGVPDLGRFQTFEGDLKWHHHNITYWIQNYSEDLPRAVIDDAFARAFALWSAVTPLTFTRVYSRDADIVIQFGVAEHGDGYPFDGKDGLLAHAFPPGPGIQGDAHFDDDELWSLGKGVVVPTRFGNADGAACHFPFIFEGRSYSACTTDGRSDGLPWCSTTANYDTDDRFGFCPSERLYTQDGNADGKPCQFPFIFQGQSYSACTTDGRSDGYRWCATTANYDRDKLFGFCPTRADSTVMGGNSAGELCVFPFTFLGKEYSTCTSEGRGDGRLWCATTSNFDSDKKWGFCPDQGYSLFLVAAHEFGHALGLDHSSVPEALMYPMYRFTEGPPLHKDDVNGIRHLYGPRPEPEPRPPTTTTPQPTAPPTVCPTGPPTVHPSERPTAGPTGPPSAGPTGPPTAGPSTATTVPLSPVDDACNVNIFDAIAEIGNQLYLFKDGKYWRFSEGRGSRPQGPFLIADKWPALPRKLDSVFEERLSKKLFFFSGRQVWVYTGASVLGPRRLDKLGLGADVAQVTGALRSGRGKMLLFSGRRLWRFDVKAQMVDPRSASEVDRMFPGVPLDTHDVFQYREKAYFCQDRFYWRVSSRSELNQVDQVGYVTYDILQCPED
Sequence of MMP-10h (P09238 99-476): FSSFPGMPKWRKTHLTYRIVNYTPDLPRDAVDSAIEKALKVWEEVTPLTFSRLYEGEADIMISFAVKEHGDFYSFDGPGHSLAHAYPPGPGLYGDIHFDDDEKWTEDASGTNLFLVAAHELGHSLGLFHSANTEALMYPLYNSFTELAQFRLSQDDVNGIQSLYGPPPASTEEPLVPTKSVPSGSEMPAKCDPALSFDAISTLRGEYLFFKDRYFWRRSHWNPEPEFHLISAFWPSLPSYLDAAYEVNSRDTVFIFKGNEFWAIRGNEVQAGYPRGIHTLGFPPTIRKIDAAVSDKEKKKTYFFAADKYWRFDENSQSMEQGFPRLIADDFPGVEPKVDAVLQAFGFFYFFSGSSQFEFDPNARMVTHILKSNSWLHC

Molecule `NC(=O)CC[C@H](NC(=O)[C@H](CCC(=O)O)NC(=O)CCc1ccc(-c2cc(-c3ccccc3)cs2)cc1)C(N)=O` [Compound 99, (S)-5-((S)-1,5-diamino-1,5-dioxopentan-2-ylamino)-5-oxo-4-(3-(4-(4-phenylthiophen-2-yl)phenyl)propanamido)pentanoic acid] has a Ki (MMP-14h; read-out: Ki MMP-14h) greater than 1 µM, a Ki (MMP-12h) of 0.0054 µM and a Ki (MMP-2h; read-out: Ki MMP-2h) greater than 1 µM. For the same molecule, the Ki (MMP-1h; read-out: Ki MMP-1h) was greater than 10 µM, the Ki (MMP-10h; read-out: Ki MMP-10h) was greater than 1 µM and the Ki (MMP-9h; read-out: Ki MMP-9h) was greater than 5 µM. The Ki (MMP-8h; read-out: Ki MMP-8h) was greater than 1 µM, the “selectivity factor F = Ki MMP-x/Ki MMP-12” value (human MMPs) was greater than 100 and the Ki (MMP-13h; read-out: Ki MMP-13h) was 0.522 µM. It also gave a Ki (MMP-3h; read-out: Ki MMP-3h) greater than 10 µM and a Ki (MMP-7h; read-out: Ki MMP-7h) greater than 10 µM.
Molecule `NC(=O)[C@H](CC(=O)O)NC(=O)[C@H](CCC(=O)O)NC(=O)CCc1ccc(-c2cc(-c3ccccc3)cs2)cc1` [Compound 101, (S)-5-((S)-1-amino-3-carboxy-1-oxopropan-2-ylamino)-5-oxo-4-(3-(4-(4-phenylthiophen-2-yl)phenyl)propanamido)pentanoic acid] has a Ki (MMP-14h; read-out: Ki MMP-14h) greater than 1 µM, a Ki (MMP-12h) of 0.00256 µM and a Ki (MMP-2h; read-out: Ki MMP-2h) greater than 1 µM. For the same molecule, the Ki (MMP-1h; read-out: Ki MMP-1h) was greater than 100 µM, the Ki (MMP-10h; read-out: Ki MMP-10h) was 0.571 µM and the Ki (MMP-9h; read-out: Ki MMP-9h) was greater than 5 µM. For the same molecule, the Ki (MMP-8h; read-out: Ki MMP-8h) was 0.379 µM, the “selectivity factor F = Ki MMP-x/Ki MMP-12” value (human MMPs) was greater than 100 and the Ki (MMP-13h; read-out: Ki MMP-13h) was 0.933 µM. The Ki (MMP-3h; read-out: Ki MMP-3h) was greater than 5 µM and the Ki (MMP-7h; read-out: Ki MMP-7h) was greater than 100 µM.
Work on `NC(=O)[C@H](CCCC(=O)O)NC(=O)[C@H](CCC(=O)O)NC(=O)CCc1ccc(-c2cc(-c3ccccc3)cs2)cc1` [Compound 103, (S)-6-amino-5-((S)-4-carboxy-2-(3-(4-(4-phenylthiophen-2-yl)phenyl)propanamido)butanamido)-6-oxohexanoic acid] yielded a Ki (MMP-14h; read-out: Ki MMP-14h) greater than 1 µM, a Ki (MMP-12h) of 0.0029 µM and a Ki (MMP-2h; read-out: Ki MMP-2h) greater than 1 µM. It also gave a Ki (MMP-1h; read-out: Ki MMP-1h) greater than 10 µM, a Ki (MMP-10h; read-out: Ki MMP-10h) of 0.845 µM and a Ki (MMP-9h; read-out: Ki MMP-9h) greater than 5 µM. The Ki (MMP-8h; read-out: Ki MMP-8h) was 0.656 µM, the “selectivity factor F = Ki MMP-x/Ki MMP-12” value (human MMPs) was greater than 100 and the Ki (MMP-13h; read-out: Ki MMP-13h) was 0.563 µM. For the same molecule, the Ki (MMP-3h; read-out: Ki MMP-3h) was greater than 5 µM and the Ki (MMP-7h; read-out: Ki MMP-7h) was greater than 5 µM.
For `NC(=O)[C@H](CCC(=O)O)NC(=O)[C@H](CCC(=O)O)NC(=O)CCc1ccc(-c2ccccc2)cc1` [Compound 40, (S)-5-amino-4-((S)-2-(3-(biphenyl-4-yl)propanamido)-4-carboxybutanamido)-5-oxopentanoic acid], the Ki (MMP-14h) was greater than 5 µM, the Ki (MMP-2h) was 0.445 µM and the Ki (MMP-1h) was greater than 100 µM. For the same molecule, the Ki (MMP-10h) was greater than 1 µM, the Ki (MMP-9h) was greater than 1 µM and the Ki (MMP-8h) was 0.226 µM. For the same molecule, the “by-product resulting from the compound” value ([1]; LC-MS and MS/MS) was “No by-product”, the “amount detected in intact form” value ([1]; LC-MS, initial solution 10 nM) was 50 fmol and the “loss of the starting material” value ([1]; attributed to nonspecific association with the eppendorf wall) was 50%. For the same molecule, the Ki (MMP-13h) was 0.689 µM, the Ki (MMP-3h) was greater than 5 µM and the Ki (MMP-7h) was greater than 10 µM.
In the case of `NC(=O)[C@H](CCC(=O)O)NC(=O)[C@H](CCC(=O)O)NC(=O)[C@@H](CC(=O)O)Cc1ccc(-c2cc(-c3ccccc3)cs2)cc1` [95 bis, (S)-5-amino-4-((S)-4-carboxy-2-((R)-3-carboxy-2-(4-(4-phenylthiophen-2-yl)benzyl)propanamido)butanamido)-5-oxopentanoic acid], the “Selectivity factor/MMP12, MMP-14h” value (MMP-14h; Ki MMP-14h/Ki MMP-12) is reported as 395, the Ki (MMP-14h; read-out: Ki MMP-14h) is reported as 0.118 µM and the “improvement of affinity with respect to MMP-12 compared with compound 95 (factor)” value (MMP-12h) is reported as 6. For the same molecule, the “Selectivity factor/MMP12, MMP-12h” value (MMP-12h; Ki MMP-12h/Ki MMP-12) was 1, the Ki (MMP-12h) was 0.0003 µM and the “Selectivity factor/MMP12, MMP-2h” value (MMP-2h; Ki MMP-2h/Ki MMP-12) was 1340. For the same molecule, the Ki (MMP-2h; read-out: Ki MMP-2h) was 0.401 µM, the “Selectivity factor/MMP12, MMP-1h” value (MMP-1h; Ki MMP-1h/Ki MMP-12) was 3333 and the Ki (MMP-1h; read-out: Ki MMP-1h) was greater than 1 µM. The “Selectivity factor/MMP12, MMP-10h” value (MMP-10h; Ki MMP-10h/Ki MMP-12) was 270, the Ki (MMP-10h; read-out: Ki MMP-10h) was 0.08 µM and the “Selectivity factor/MMP12, MMP-9h” value (MMP-9h; Ki MMP-9h/Ki MMP-12) was 3333. For the same molecule, the Ki (MMP-9h; read-out: Ki MMP-9h) was greater than 1 µM, the “Selectivity factor/MMP12, MMP-8h” value (MMP-8h; Ki MMP-8h/Ki MMP-12) was 1730 and the Ki (MMP-8h; read-out: Ki MMP-8h) was 0.52 µM. The “selectivity factor F = Ki MMP-x/Ki MMP-12” value (human MMPs) was greater than 100, the “Selectivity factor/MMP12, MMP-13h” value (MMP-13h; Ki MMP-13h/Ki MMP-12) was 660 and the Ki (MMP-13h; read-out: Ki MMP-13h) was 0.198 µM. For the same molecule, the “Selectivity factor/MMP12, MMP-3h” value (MMP-3h; Ki MMP-3h/Ki MMP-12) was 1930, the Ki (MMP-3h; read-out: Ki MMP-3h) was 0.579 µM and the “Selectivity factor/MMP12, MMP-7h” value (MMP-7h; Ki MMP-7h/Ki MMP-12) was 3333. For the same molecule, the Ki (MMP-7h; read-out: Ki MMP-7h) was greater than 1 µM.
